Assay results reported in ChEMBL document CHEMBL1159382, “New antimalarial bis-dehydroaporphine alkaloids from Polyalthia debilis” (J Nat Prod, 2003).
Values after ≈ are worked out from the molar mass of the structure shown.

Tested on: Plasmodium falciparum
Experiment: Antimalarial activity against multidrug-resistant Plasmodium falciparum K1 by [3H]hypoxanthine uptake
Format: functional, organism-based

In order of rising IC50:
1. C[C@@H]1CC[C@H]2[C@@H](C)C(=O)O[C@@H]3O[C@@]4(C)CC[C@@H]1[C@]32OO4 [ARTEMISININ]  0.001 µg/mL (≈ 0.00354 µM)
2. COc1ccc2c(-c3c4c5c(cc6c(c5c5cc(OC)ccc35)OCO6)CCN4)c3c4c(cc5c(c4c2c1)OCO5)CCN3 [BIDEBILINE D]  4.1 µg/mL (≈ 7.01 µM)
3. COc1cccc2c1c(-c1c3c4c(cc5c(c4c4cccc(OC)c14)OCO5)CCN3)c1c3c(cc4c(c32)OCO4)CCN1 [BIDEBILINE C]  5.4 µg/mL (≈ 9.24 µM)
